Measured values as given in US20140227408A1, “MEAT TREATMENT AND PRESERVATION METHOD” (RED MEAT AS, priority 2011, published 2014).
Marks after values point to notes of the source that are not given here.

Tests used:
Parameters in all cases: species or system cattle
[1] = system: myoglobin in ground beef; experiment: Myoglobin states (DMb, OMb, MMb) by reflectance spectra of treated ground beef, low oxygen packaging (Example 5); conditions: for DMb / MMb / OMb: citrate High level (0.025 mol/kg), low oxygen, adjusted mean ± standard error
Text: (§1) Beef M. semimembranosus (M.S.) and beef fat tissue were collected four days post mortem (Fatland A/S, Oslo, Norway). The packaging day is defined as day zero, however, the tissues were 4 days post mortem on packing day. A piece of meat from proximal end was cut from each muscle in order to measure oxygen consumption, pH and surface colour. Fat tissue from pigs fed rapeseed and vitamin E to enhance the content of polyunsaturated fatty acids were from HKScan (Ruokatalo, Finland). The fat tissue was transported vacuum-packaged and frozen. Samples of minced fat tissue were removed for fatty acid analysis.
(§2) The beef muscles were cut into pieces of approximately 10×5 cm and mixed to 14% w/w fat by using the fat tissues. Beef fat and pork fat tissues were ground twice with either raw beef from four young (16-19 months) or four old (46-81 months) cattle. […] The ground meat was blended manually with solutions (all at pH 5.8) with various TCA and glycolytic ingredients (see below).
(§3) To maintain pH at 5.8 the solutions were prepared by mixing the acid form and the corresponding sodium salt of these chemicals.
(§4) 40 g of 0.1 M or 0.05 M solutions were added to ground beef-fat mixture (360 g) to a total weight of 400 g. The solution was quickly and properly stirred into the minced meat and the blended system was subsequently packaged. […] Two reference samples with 40 ml of distilled water added to 360 gram of ground beef were also prepared each of the four production day, i.e. altogether 8 references were prepared. The samples were packaged in either low or high oxygen atmosphere.
(§5) The ground beef was packaged in black amorphous polyethylene terephthalate (APET) trays that were sealed with ethylene vinyl alcohol (EVOH) top films. The trays and films (Wipak Multipet and Wipak Biaxer, both Wipak, Nastola, Finland) had oxygen transmission rates of 7 and 5 cm^3/m^2/24 h at 23° C. at 50% relative humidity. Packaging was carried out within 1 hour after grinding. The samples were stored in darkness at 4° C. for 8 days in a high-oxygen atmosphere (75% oxygen and 25% CO2) and for 13 days in a low-oxygen atmosphere (60% CO2 and 40% N2). These food grade gas mixtures were supplied by AGA (Oslo, Norway).
Samples were scanned, […], with a Foss NIRSystems OptiProbe™ 6500 Analyzer (Foss NIRSystems Inc., Maryland, USA) without opening of the package. The package was turned upside-down before measurements so that the meat would fall on the packaging film. The samples were scanned with three random placements of the probe on the package surface in order to increase the scanning area and reduce the measurement errors. Thirty-two scans for both reference and samples were acquired and averaged on each measured area. All measurements were performed at room temperature (approx. 20° C.) according to Khatri, et al. (Meat Sci. (2012) 91(3): 223-231). These spectra were used to predict OMb, MMb and DMb levels. Calibration was performed using comminuted meat with 10% w/w added water.
(§6) The colour of the samples packaged in high O2 was measured after 0, 1, 3, 6 and 8, days of storage from packaging day, while low O2 samples were measured at 0 to 13 days of storage using Minolta and reflectance measurements.
The statistical analysis was performed according to the approach described by Langsrud et al. (J. Appl. Statist. (2007) 34:1275-1296) and implemented in the 50-50 MANOVA software (http://www.langsrud.com/stat/program.htm). This program handles mixture designs as generalized categorical variables (generalized ANOVA). When using this method one can always formulate equivalent models that use the individual mixture variables as ordinary (one degree of freedom) regression variables. Then one arbitrary mixture variable has to be omitted (slack variable).

[2] = Colour L*, a*, b* of treated ground beef, high oxygen packaging (Example 5); conditions: citrate High level
Text: as §1, §2, §3, §4, §5
(§7) The colour of the ground meat samples was measured with a Konica Minolta Chroma Meter CR 410 (Konica Minolta Sensing Inc., Osaka, Japan) using the glass light projection tube CR A 33e with wide illumination area (61 mm) and illuminant D65. The instrument was calibrated each day by measuring a white ceramic plate (L*=97.9; a*=0.05; b*=2). All colour measurements were made with 3 replicates (CIE, 1976, “Recommendations on uniform colour spaces-colour difference equations” (Vol. Supplement No. 2 to CIE). Paris, France: Commission Internationale de l'Eclairage).
as §6
The experimental design is visualized in FIG. 5. A 2^2 design (animal age and type of fat tissue) was split over 4 experimental days (FIG. 5, and Tables 10 and 11). […] 5.

[3] = Colour L*, a*, b* of treated ground beef, low oxygen packaging (Example 5); conditions: citrate High level (0.025 mol/kg), low oxygen, adjusted mean ± standard error
Text: as §1, §2, §3
[…] The solution was quickly and properly stirred into the minced meat and the blended system was subsequently packaged. […] Two reference samples with 40 ml of distilled water added to 360 gram of ground beef were also prepared each of the four production day, i.e. altogether 8 references were prepared. The samples were packaged in either low or high oxygen atmosphere.
as §5, §7, §6
The experimental design is visualized in FIG. 5. A 2^2 design (animal age and type of fat tissue) was split over 4 experimental days (FIG. 5, and Tables 10 and 11). To each corner of this 2^2 design was added a 3 component (succinate, pyruvate and glutamate-malate additions; 0, 50 and 100%) simplex lattice mixture design with 2 additional centre experiments as shown in FIG. 5.

[4] = Day 1, adjusted mean ± standard error
[5] = Day 3, adjusted mean ± standard error
[6] = Day 6, adjusted mean ± standard error
[7] = Day 8, adjusted mean ± standard error

Compound: O=C(O)CC(O)(CC(=O)O)C(=O)O [Citrate]
- DMb ([1]; Day 1): 42.1 ± 3.3 %
- MMb ([1]; Day 1): 50.2 ± 3.0 %
- OMb ([1]; Day 1): 7.8 ± 0.4 %
- DMb ([1]; Day 3): 55.5 ± 3.3 %
- MMb ([1]; Day 3): 39.1 ± 3.1 %
- OMb ([1]; Day 3): 5.5 ± 0.4%
- DMb ([1]; Day 6): 64.9 ± 3.1%
- OMb ([1]; Day 6): 3.7 ± 0.4%
- DMb ([1]; Day 8): 66.6 ± 3.1%
- OMb ([1]; Day 8): 4.1 ± 0.4%
- DMb ([1]; Day 10): 69.9 ± 3.0%
- MMb ([1]; Day 10): 26.3 ± 2.9 %
- OMb ([1]; Day 10): 3.8 ± 0.3%
- DMb ([1]; Day 13): 72.3 ± 4.1 %
- MMb ([1]; Day 13): 23.9 ± 3.8 %
- OMb ([1]; Day 13): 3.8 ± 0.5 %
- effect on myoglobin states (DMb, OMb, MMb), in words ([1]; low oxygen packaging): increased OMb and MMb while the DMb was reduced
- L* [2, 4]: 34.2 ± 0.3
- a* [2, 4]: 13.0 ± 0.2*
- b* [2, 4]: 4.5 ± 0.1*
- L* [2, 5]: 33.6 ± 0.3*
- a* [2, 5]: 12.3 ± 0.2*
- b* [2, 5]: 4.4 ± 0.1*
- L* [2, 6]: 33.8 ± 0.3
- a* [2, 6]: 11.0 ± 0.3
- b* [2, 6]: 4.1 ± 0.2*
- L* [2, 7]: 33.9 ± 0.3
- a* [2, 7]: 10.3 ± 0.2
- b* [2, 7]: 4.0 ± 0.1*
- L* ([3]; Day 1): 33.5 ± 0.3
- a* ([3]; Day 1): 6.6 ± +.3*
- b* ([3]; Day 1): 2.3 ± 0.2
- L* ([3]; Day 3): 33.0 ± 0.3
- a* ([3]; Day 3): 7.1 ± 0.2
- b* ([3]; Day 3): 2.3 ± 0.1*
- L* ([3]; Day 6): 33.3 ± 0.2*
- a* ([3]; Day 6): 7.5 ± 0.2
- b* ([3]; Day 6): 2.2 ± 0.1*
- L* ([3]; Day 8): 33.4 ± 0.2*
- a* ([3]; Day 8): 7.5 ± 0.2
- b* ([3]; Day 8): 2.1 ± 0.1*
- L* ([3]; Day 10): 33.4 ± 0.2*
- a* ([3]; Day 10): 7.6 ± 0.2
- b* ([3]; Day 10): 2.1 ± 0.1
- L* ([3]; Day 13): 33.2 ± 0.3*
- a* ([3]; Day 13): 7.6 ± 0.4
- b* ([3]; Day 13): 2.1 ± 0.2*
